Data on eight compounds can be found in US6046331A, “Imidazolones and their use in treating benign prostatic hyperplasia and other disorders” (Synaptic Pharmaceutical Corporation, priority 1998, dated 2000).

This assay concerns the target T1, human α1a receptor (Homo sapiens, UniProt P35348).
T1 construct: The entire coding region of α1a (1401 bp); expressed in transfected cells; host or cells: LM(tk-) mouse fibroblast line L-α1C (old nomenclature), ATCC CR 11140
T1 sequence (P35348 1-466): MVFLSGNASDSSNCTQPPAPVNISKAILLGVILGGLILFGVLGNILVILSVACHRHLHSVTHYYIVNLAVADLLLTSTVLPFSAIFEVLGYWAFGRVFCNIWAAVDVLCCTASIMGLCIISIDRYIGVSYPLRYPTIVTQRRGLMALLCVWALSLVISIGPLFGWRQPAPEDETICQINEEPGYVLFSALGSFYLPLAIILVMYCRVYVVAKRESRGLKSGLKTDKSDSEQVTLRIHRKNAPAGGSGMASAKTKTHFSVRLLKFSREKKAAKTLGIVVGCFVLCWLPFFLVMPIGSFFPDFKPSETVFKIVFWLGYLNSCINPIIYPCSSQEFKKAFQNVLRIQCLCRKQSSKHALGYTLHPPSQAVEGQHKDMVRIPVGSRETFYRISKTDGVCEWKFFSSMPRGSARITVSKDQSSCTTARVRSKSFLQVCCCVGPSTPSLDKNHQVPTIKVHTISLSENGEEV
In words: Radioligand binding ([^3 H]prazosin) at cloned human α1a receptor. The following applies: LM(tk-) cell membranes, read-out: hα1a Ki. The procedure:
Binding affinities were measured for selected compounds of the invention at six cloned human α1 and α2 receptor subtypes, as well as at the L-type calcium channel. The protocols for these experiments are given below.
The activity of compounds at the different human receptors was determined in vitro using cultured cell lines that selectively express the receptor of interest. These cell lines were prepared by transfecting the cloned cDNA or cloned genomic DNA or constructs containing both genomic DNA and cDNA encoding the human α-adrenergic receptors as follows:
α1a Human Adrenergic Receptor: The entire coding region of α1a (1401 bp), including 400 base pairs of 5' untranslated sequence (5' UT) and 200 bp of 3' untranslated sequence (3' UT), was cloned into the KpnI site of the polylinker-modified pCEXV-3-derived eukaryotic expression vector, EXJ.RH. The construct involved ligating three partial overlapping fragments: a 5' 0.6 kb HincII genomic clone, a central 1.8 EcoRI hippocampal cDNA clone, and a 3' 0.6Kb PstI genomic clone. The hippocampal cDNA fragment overlaps with the 5' and 3' genomic clones so that the HincII and PstI sites at the 5' and 3' ends of the cDNA clone, respectively, were utilized for ligation. This full-length clone was cloned into the KpnI site of the expression vector, using the 5' and 3' KpnI sites of the fragment, derived from vector (i.e., pBluescript) and 3'-untranslated sequences, respectively. Stable cell lines were selected as described above. The stable cell line expressing the human α1a receptor used herein was designated L-α1C (old nomenclature) and was deposited with the American Type Culture Collection, 12301 Parklawn Drive, Rockville, Md. 20852, U.S.A. under the provisions of the Budapest Treaty for the International Recognition of the Deposit of Microorganisms for the Purposes of Patent Procedure. The cell line expressing the human α1a receptor was accorded Accession No. CR 11140, on Sep. 25, 1992.
Radioligand Binding Assays for α1 receptors:
Transfected cells from culture flasks were scraped into 5 ml of 5 mM Tris-HCl, 5 mM EDTA, pH 7.5, and lysed by sonication. The cell lysates were centrifuged at 1000 rpm for 5 min at 4° C., and the supernatant was centrifuged at 30,000× g for 20 min at 4° C. The pellet was suspended in 50 mM Tris-HCl, 1 mM MgCl2, and 0.1% ascorbic acid at pH 7.5. Binding of the α1 antagonist [^3 H]prazosin (0.5 nM, specific activity 76.2 Ci/mmol) to membrane preparations of LM(tk-) cells was done in a final volume of 0.25 ml and incubated at 37° C. for 20 min. Nonspecific binding was determined in the presence of […] phentolamine. The reaction was stopped by filtration through GF/B filters using a cell harvester. Inhibition experiments, routinely consisting of 7 concentrations of the tested compounds, were analyzed using a non-linear regression curve-fitting computer program to obtain Ki values.
The compounds described above were assayed using cloned human alpha adrenergic receptors. […] The binding affinities of several compounds are illustrated in the following table.
Binding affinities of selected compounds of the present invention at cloned human α1d, α1b and α1a receptors. (h=human)

As to `COC(=O)c1[nH]c(=O)n(CCCCCN2CCN(c3ccccc3C(N)=O)CC2)c1-c1cc(F)c(F)cc1F` [Compound 7, 1-(5-(4-(2-Aminocarbonylphenyl)piperazin-1-yl)pent-1-yl)-5-(2,4,5-trifluorophenyl)-2,3-dihydro-4-methoxylcarboxy-2(1H)-imidazolone], the Ki was 1.2 nM.
As to `COC(=O)c1[nH]c(=O)n(CCCCCN2CCC(C(=O)OC)(c3ccccc3)CC2)c1-c1ccc(F)c(F)c1` [Compound 1, 1-(5-(4-Methoxycarbonyl-4-phenylpiperidin-1-yl)pent-1-yl)-4-methoxycarbonyl-5-(3,4-difluorophenyl)-2,3-dihydro-2(1H)-imidazolone], the Ki was 1.8 nM.
Turning to `COC(=O)c1[nH]c(=O)n(CCCCCN2CCC(C(=O)OC)(c3ccccc3)CC2)c1Cc1ccc(F)c(F)c1` [Compound 37, 5-(3,4-Difluorobenzyl)-2,3-dihydro-4-methoxycarbonyl-1-(5-(4-methoxycarbonyl-4-phenylpiperidin-1-yl)pent-1-yl)-2(1H) -imidazolone], the inhibition constant (Ki) was determined as 4.5 nM.
As for `COC(=O)c1[nH]c(=O)n(CCCCCN2CCC(C#N)(c3ccccc3)CC2)c1-c1ccc(F)c(F)c1` [Compound 2, 5-(3,4-Difluorophenyl)-2,3-dihydro-4-methoxycarbonyl-1-(5-(4-cyano-4-phenylpiperidin-1-yl)pent-1-yl)-2(1H)-imidazolone], the inhibition constant Ki was 4.1 nM.
Consider `COC(=O)c1[nH]c(=O)n(CCCCCN2CCC(O)(c3ccccc3)CC2)c1-c1ccc(F)c(F)c1` [Compound 3, 5-(3,4-Difluorophenyl)-2,3-dihydro-4-methoxycarbonyl-1-(5-(4-hydroxy-4-phenylpiperidin-1-yl)pent-1-yl)-2(1H)-imidazolone], for which the inhibition constant Ki came out at 21.1 nM.
On to `CCOC(=O)c1[nH]c(=O)n(CCCCCN2CCN(c3ccccc3C(N)=O)CC2)c1-c1ccc(F)c(F)c1` [Compound 6, 1-(5-(4-(2-Aminocarbonylphenyl)piperazin-1-yl)pent-1-yl)-4-ethoxycarbonyl-5-(3,4-difluorophenyl)-2,3-dihydro-2(1H)-imidazolone], for which the Ki was 1.4 nM.
Turning to `COC(=O)c1ccccc1N1CCN(CCCCCn2c(-c3cc(F)c(F)c(F)c3)c(C(=O)OC)[nH]c2=O)CC1` [Compound 5, 5-(3,4,5-Trifluorophenyl)-2,3-dihydro-4-methoxycarbonyl-1-(5-(4-(2-methoxycarbonylphenyl)piperazin-1-yl)pent-1-yl)-2(1H)-imidazolone], the Ki amounted to 0.1 nM.
The value for `COC(=O)c1[nH]c(=O)n(CCCCCN2CCN(c3ccccc3C(N)=O)CC2)c1-c1cc(F)c(F)c(F)c1` [Compound 4, 1-(5-(4-(2-Aminocarbonylphenyl)piperazin-1-yl)pent-1-yl)-5-(3,4,5-trifluorophenyl)-2,3-dihydro-4-methoxycarbonyl-2(1H)-imidazolone] was 1.5 nM.
